Source: patent US20110118314A1, “PIPERIDINE ANALOGS AS GLYCOGEN SYNTHASE ACTIVATORS” (priority 2009, published 2011)
pEC50: −log10 of the molar value.

Tested on: glycogen synthase
Assay: Glycogen Synthase (GS) Assay
Assay type: biochemical
Conditions: for pEC50: compound concentration needed to give 50% maximum activation; for GS SC200: compound concentration needed to stimulate 200% of the enzyme activity
Method: The following tests were carried out in order to determine the activity of the compounds of formula (I).
Twelve μL per well of substrate solution containing glycogen (4.32 mg/mL), 2.67 mM UDP-glucose, 21.6 mM phospho(enol)pyruvate and 2.7 mM NADH in 30 mM glycylglycine, pH 7.3 buffer was added into a polystyrene 384-well assay plate (BD Biosciences).
Compound solutions (8 μL/well) at various concentrations (0-300 μM) were added to the assay plate (columns 5-24). Compound solution contains 30 mM glycylglycine, pH 7.3, 40 mM KCl, 20 mM MgC12, 9.2% DMSO, with (columns 15-24) or without (columns 5-14) 20 mM glucose 6-phosphate.
Enzyme solution (12 μL/well) containing glycogen synthase (16.88 μg/mL), pyruvate kinase (0.27 mg/mL), lactate dehydrogenase (0.27 mg/mL) in 50 mM Tris-HCl, pH 8.0, 27 mM DTT and bovine serum albumin (BSA, 0.2 mg/mL) was added to the assay plate (columns 3-24). As a blank control, enzyme solution without glycogen synthase was added into the top half wells of columns 1-2. To the bottom half wells of columns 1-2 were added a known activator, glucose 6-phosphate (at final concentration 5 mM) in addition to the enzyme solution. The reaction mixture was incubated at room temperature. The assay plate was then read for absorbance at 340 nm on an Envision reader every 3 minutes up to a total of 15 minutes.
The enzyme activity (with or without compound) was calculated by the reaction rate and represented by the optical density change (SOD) per minute. Percent stimulation of glycogen synthase activity by a compound at various concentrations was calculated by the following formula: […]
where Rs is the reaction rate of the enzyme in the presence of compound and Rt is the reaction rate of the enzyme in the absence of compound.
SC200 is defined as the compound concentration that is needed to stimulate 200% of the enzyme activity. EC50 is defined as the compound concentration that is needed to give 50% maximum activation.
Compounds from Example 1 through Example 36 were assayed according to assay procedures described above and the results are listed in Table 1 below: […]

pEC50	Compound	GS SC200 [µM]
6.46	COc1cc(F)c(F)cc1-c1ccc(OC[C@H]2CCCN(C(=O)CC(=O)O)C2)cc1 (single isomer, unassigned) [Example 3]	0.21
5.76	COc1cc(F)c(F)cc1-c1ccc(OC[C@@H]2CCCN(C(=O)CC(=O)O)C2)cc1 (single isomer, unassigned) [Example 4]	1.18
5.47	COc1cc(F)c(F)cc1-c1ccc(OCC2CCCN(C(=O)C3(C(=O)O)CC3)C2)cc1 (stereo not shown) [Example 1, 1-[3-(4′,5′-Difluoro-2′-methoxy-biphenyl-4-yloxymethyl)-piperidine-1-carbonyl]-cyclopropanecarboxylic acid]	1.1
6.29	COc1cc(F)c(F)cc1-c1ccc(OCC2CCCN(C(=O)CC(=O)O)C2)cc1 (stereo not shown) [Example 2, 3-[3-(4′,5′-Difluoro-2′-methoxy-biphenyl-4-yloxymethyl)-piperidin-1-yl]-3-oxo-propionic acid]	0.05
5.19	CONC(=O)CC(=O)N1CCCC(COc2ccc(-c3cc(F)c(F)cc3OC)cc2)C1 (stereo not shown) [Example 5, 3-[3-(4′,5′-Difluoro-2′-methoxy-biphenyl-4-yloxymethyl)-piperidin-1-yl]-N-methoxy-3-oxo-propionamide]	0.99
5.26	COc1cc(F)c(F)cc1-c1ccc(OCC2CCCN(C(=O)CC(=O)NO)C2)cc1 (stereo not shown) [Example 6, 3-[3-(4′,5′-Difluoro-2′-methoxy-biphenyl-4-yloxymethyl)-piperidin-1-yl]-N-hydroxy-3-oxo-propionamide]	2.37
5.10	COc1cc(F)c(F)cc1-c1ccc(OCC2CCCN(C(=O)[C@H](C)CC(=O)O)C2)cc1 (stereo partly drawn) [Example 8, (R)(+)-4-[3-(4′,5′-Difluoro-2′-methoxy-biphenyl-4-yloxymethyl)-piperidin-1-yl]-3-methyl-4-oxo-butyric acid]	2.35
5.20	COc1cc(F)c(F)cc1-c1ccc(OCC2CCCN(C(N)=O)C2)cc1 (stereo not shown) [Example 9, 3-(4′,5′-Difluoro-2′-methoxy-biphenyl-4-yloxymethyl)-piperidine-1-carboxylic acid amide]	2.22
6.17	COc1cc(F)c(F)cc1-c1ccc(OCC2CCCN(C(=O)C(C)C(=O)O)C2)cc1 (stereo not shown) [Example 17, 3-[3-(4′,5′-Difluoro-2′-methoxy-biphenyl-4-yloxymethyl)-piperidin-1-yl]-2-methyl-3-oxo-propionic acid]	0.29
6.01	CCC(C(=O)O)C(=O)N1CCCC(COc2ccc(-c3cc(F)c(F)cc3OC)cc2)C1 (stereo not shown) [Example 18, 2-[3-(4′,5′-Difluoro-2′-methoxy-biphenyl-4-yloxymethyl)-piperidine-1-carbonyl]-butyric acid]	–
4.89	COc1cc(F)c(F)cc1-c1ccc(OCC2CCCN(C(=O)CC(N)=O)C2)cc1 (stereo not shown) [Example 20, 3-[3-(4′,5′-Difluoro-2′-methoxy-biphenyl-4-yloxymethyl)-piperidin-1-yl]-3-oxo-propionamide]	6.34

The remaining lines, values behind:

Compound	pEC50	GS SC200 [µM]
COc1cc(F)c(F)cc1-c1ccc(OC[C@@H]2CCCN(C(=O)N(CC(=O)O)Cc3ccccc3)C2)cc1 (single isomer, unassigned) [Example 23]	6.02	0.23
COc1cc(F)c(F)cc1-c1ccc(OC[C@H]2CCCN(C(=O)N(CC(=O)O)Cc3ccccc3)C2)cc1 (single isomer, unassigned) [Example 24]	5.32	1.99
COc1cc(F)c(F)cc1-c1ccc(OCC2CCCN(C(=O)[C@H]3CCC[C@@H]3C(=O)O)C2)cc1 (stereo in doubt) [Example 7, 2-[3-(4′,5′-Difluoro-2′-methoxy-biphenyl-4-yloxymethyl)-piperidine-1-carbonyl]-cyclopentanecarboxylic acid]	5.20	1.55
COc1cc(F)c(F)cc1-c1ccc(OCC2CCCN(C(=O)[C@@H](CC(=O)O)NC(=O)OC(C)(C)C)C2)cc1 (stereo partly drawn) [Example 10, (R)-3-tert-Butoxycarbonylamino-4-[3-(4′,5′-difluoro-2′-methoxy-biphenyl-4-yloxymethyl)-piperidin-1-yl]-4-oxo-butyric acid]	5.24	1.51
COc1cc(F)c(F)cc1-c1ccc(OCC2CCCN(C(=O)[C@@H](CC(=O)O)NC(C)=O)C2)cc1 (stereo partly drawn) [Example 11, (R)-3-Acetylamino-4-[3-(4′,5′-difluoro-2′-methoxy-biphenyl-4-yloxymethyl)-piperidin-1-yl]-4-oxo-butyric acid]	5.71	0.42
COc1cc(F)c(F)cc1-c1ccc(OCC2CCCN(C(=O)[C@H](CC(=O)O)NC(=O)OC(C)(C)C)C2)cc1 (stereo partly drawn) [Example 12, (S)-3-tert-Butoxycarbonylamino-4-[3-(4′,5′-difluoro-2′-methoxy-biphenyl-4-yloxymethyl)-piperidin-1-yl]-4-oxo-butyric acid]	4.96	3.74
COc1cc(F)c(F)cc1-c1ccc(OCC2CCCN(C(=O)[C@H](CC(=O)O)N(C)C(C)=O)C2)cc1 (stereo partly drawn) [Example 13, (S)-3-(Acetyl-methyl-amino)-4-[3-(4′,5′-difluoro-2′-methoxy-biphenyl-4-yloxymethyl)-piperidin-1-yl]-4-oxo-butyric acid]	4.91	2.12
COc1cc(F)c(F)cc1-c1ccc(OCC2CCCN(C(=O)C3CN(C(=O)OC(C)(C)C)CC3C(=O)O)C2)cc1 (stereo not shown) [Example 14, 4-[3-(4′,5′-Difluoro-2′-methoxy-biphenyl-4-yloxymethyl)-piperidine-1-carbonyl]-pyrrolidine-1,3-dicarboxylic acid 1-tert-butyl ester]	5.43	1.94
COc1cc(F)c(F)cc1-c1ccc(OCC2CCCN(C(=O)C3CN(C(C)=O)CC3C(=O)O)C2)cc1 (stereo not shown) [Example 15, 1-Acetyl-4-[3-(4′,5′-difluoro-2′-methoxy-biphenyl-4-yloxymethyl)-piperidine-1-carbonyl]-pyrrolidine-3-carboxylic acid]	5.24	3.65
COc1cc(F)c(F)cc1-c1ccc(OCC2CCCN(C(=O)C3CN(C(N)=O)CC3C(=O)O)C2)cc1 (stereo not shown) [Example 16, 1-Carbamoyl-4-[3-(4′,5′-difluoro-2′-methoxy-biphenyl-4-yloxymethyl)-piperidine-1-carbonyl]-pyrrolidine-3-carboxylic acid]	5.19	0.42
COc1cc(F)c(F)cc1-c1ccc(OCC2CCCN(C(=O)C(C(=O)O)C(C)(C)C)C2)cc1 (stereo not shown) [Example 19, 2-[3-(4′,5′-Difluoro-2′-methoxy-biphenyl-4-yloxymethyl)-piperidine-1-carbonyl]-3,3-dimethyl-butyric acid]	5.27	2.21
COc1cc(F)c(F)cc1-c1ccc(OCC2CCCN(C(=O)C3CCS(=O)(=O)N3)C2)cc1 (stereo not shown) [Example 21, [3-(4′,5′-Difluoro-2′-methoxy-biphenyl-4-yloxymethyl)-piperidin-1-yl]-(1,1-dioxido-3-isothiazolidin-3-yl)-methanone]	5.14	–
COc1cc(F)c(F)cc1-c1ccc(OCC2CCCN(C(=O)N(CC(=O)O)Cc3ccccc3)C2)cc1 (stereo not shown) [Example 22, {Benzyl-[3-(4′,5′-difluoro-2′-methoxy-biphenyl-4-yloxymethyl)-piperidine-1-carbonyl]-amino}-acetic acid]	5.58	0.12
